In US7351399B2, “Prodrugs for phosphorus-containing compounds” (Metabasis Therapeutics, Inc., priority 1998, dated 2008):
Entries after “also recorded” stand apart in the source; their conditions may differ. Blank lines part the entries; values can stand above or below the compound they belong to.

What was measured:
[1] = Chemical stability in isotonic saline and phosphate buffer (Example A); type: physicochemical; details: 100 μM; phosphate buffer pH 7.4; 1 hour; room temperature
Description: Methods: Aliquots of a 10 μg/mL solution of 30.1 in isotonic saline and in 100 mM potassium phosphate buffers at pH 3, 7, and 9 were sampled after 1, 2, 5, and 7 days of incubation at room temperature and analyzed by HPLC. A Beckman Ultrasphere C8 column (4.6×150 mm) was employed and eluted with a gradient from 0.1% v/v trifluoroacetic acid to 80% methanol at a flow rate of 1.0 mL/min. Detection was at 254 nm. Using these conditions, the four isomers of 30.1 were readily separated and quantified. 1.3 was incubated at 100 μM in phosphate buffer at pH 7.4 and analyzed by HPLC as described in Example I following 1 hour of incubation at room temperature.
Thus, prodrugs of the invention are stable under a broad pH range.

[2] = Delivery of parent compound to liver after intraperitoneal 1.3 (Example U); type: in vivo, rat; details: 1.3 50 mg/kg i.p.
Description: Methods: 1.3 was dissolved in DMSO and administered intraperitoneally to fasted rats at a dose of 50 mg/kg. At various time points following drug administration, animals were anesthetized with halothane. The peritoneal cavity was then opened and a blood sample was obtained from the abdominal vena cava and the liver freeze-clamped and excised. Blood and liver samples were processed as described in Example P and analyzed for 6-Amino-9-neopentyl-8-(2-phosphonofuranyl)purine content as described in Example I.
Results: 6-Amino-9-neopentyl-8-(2-phosphonofuranyl)purine was detected both in plasma and liver following 1.3 administration. Peak levels measured at the earliest time point of 1 hour were 5.8 μM in plasma and 5 nmoles/g tissue in liver. 6-Amino-9-neopentyl-8-(2-phosphonofuranyl)purine persisted in plasma and liver for 4 hours (the last time point measured).

[3] = Stability in plasma (Example C); details: 37° C.; 5-8 hours; HPLC
Description: Methods: Compounds were incubated in plasma at 37° C., and aliqouts removed at appropriate time points over the course of 5-8 hours. The aliquots were extracted with 1.5 volumes of methanol and clarified by centrifugation. Supernatants were then evaporated to dryness and the residues reconstituted with 100 μL of isoionic saline and then analyzed by reverse phase HPLC.

[4] = system: glucose production (gluconeogenesis) in isolated rat hepatocytes; assay: Inhibition of glucose production in rat hepatocytes (Example J); type: cell-based; details: lactate 10 mM / pyruvate 1 mM, 1 hour
Description: Select prodrugs of FBPase inhibitors were tested for inhibition of glucose production in isolated rat hepatocytes.
After a 10 minute equilibration period, lactate and pyruvate were added to 10 mM and 1 mM concentrations, respectively. Addition of gluconeogenic substrates was immediately followed by that of appropriate concentrations of test compound. After 1 hour, an aliquot (0.25 ml) was removed, transferred to an Eppendorf tube and centrifuged. The supernatant (50 μl) was then assayed for glucose content using a Glucose Oxidase kit (Sigma Chemical Co.) as per the manufacturer's instructions.
Results: The following table depicts the inhibitory effect on gluconeogenesis for several prodrugs prepared in the Examples.

[5] = Oral bioavailability by urinary excretion method (Example M); type: in vivo; details: oral gavage 20 or 40 mg/kg parent equivalents; 24 h urine vs i.v. parent ~10 mg/kg; rat
Description: The oral bioavailability of prodrugs of a variety of phosphonic acid FBPase inhibitors was estimated by a urinary excretion method in rat.
Prodrugs of FBPase inhibitors were dissolved in 10% ethanol/90% polyethylene glycol (mw 400) and administered by oral gavage at doses of 20 or 40 mg/kg parent compound equivalents to 6-hour fasted, Sprague Dawley rats (220-240 g). The rats were subsequently placed in metabolic cages and urine was collected for 24 hours. The quantity of parent compound excreted into urine was determined by HPLC analysis. An ODS column eluted with a gradient from potassium phosphate buffer, pH 5.5 to acetonitrile was employed for these measurements. Detection was at 310-325 nm. […] Parent compounds were typically dissolved in dimethyl sulfoxide, and administered via the tail vein in animals that were briefly anesthetized with halothane.
Results for the FBPase inhibitor prodrugs were as follows

isolated rat hepatocytes [6] = assay: Activation in isolated rat hepatocytes (Example I); details: 100 μM prodrug; fed rat hepatocytes
Description: Methods: Hepatocytes were prepared from fed Sprague-Dawley rats (250-300 g) according to the procedure of Berry and Friend (Berry, M. N., Friend, D. S. J. Cell Biol. 43, 506-520 (1969)) as modified by Groen (Groen, A. K. et al. Eur J. Biochem 122, 87-93 (1982)). Hepatocytes (75 mg wet weight/ml) were incubated in 1 ml Krebs-bicarbonate buffer containing 10 mM glucose, and 1 mg/ml BSA. […] Prodrugs were dissolved in DMSO to yield 10 mM stock solutions, and then diluted into the cell suspension to yield a final concentration of 100 μM. At appropriate time points over the course of one hour, aliquots of the cell suspension were removed and spun through a silicon/mineral oil layer into 10% perchloric acid. The cell extracts in the acid layers were neutralized, and the intracellular prodrug metabolite content analyzed by reverse phase HPLC. An ODS column was used for analysis. It was eluted with a gradient from 10 mM sodium phosphate, pH 5.5 to 75% acetonitrile. Detection was at 310 nm. Peaks on the chromatograms were identified by comparison to the retention times and spectra of standards of prodrug and parent compound.

[7] = Renal excretion of PMEA after intravenous administration (Example Q); details: i.v.; for Renal excretion of PMEA, of the administered dose: rats, 24 hour urine
Description: Rats were subsequently caged in metabolic cages and urine collected over a 24 hour period. Urine samples were extracted with 70% methanol/2% acetic acid, vortexed and clarified by centrifugation. Supernatants were analyzed for PMEA content by reverse phase HPLC. A Beckman Ultrasphere ODS (4.6×150 mm) column was used with a gradient from 20 mM potassium phosphate pH 6.2 to 50% acetonitrile.

[8] = Hepatic PMEA-diphosphate and plasma PMEA after intravenous administration (Example P); type: in vivo, rat; details: 10 mg/kg PMEA equivalents i.v.; fasted rats
Description: Methods. […] At appropriate time points, blood and liver samples were obtained and processed as described in Example O. PMEA-diphosphate in liver and PMEA in plasma were analyzed by HPLC as described for araATP and ara-hypoxanthine, respectively, in Example O.

[9] = system: human liver microsomes, p450 isozymes (CYP3A4, CYP1A2, CYP2C9); assay: Identification of the p450 isozyme involved in the activation, with isozyme inhibitors (Example F); details: 0-100 μM p450 isozyme inhibitor, 250 μM 30.1
[10] = in vivo; cited from earlier work
isolated rat hepatocytes [11] = assay: Generation of PMEApp in isolated rat hepatocytes (Example V); type: cell-based; details: Dose 250 μM; 4 h; triplicate
Description: Methods: Hepatocytes were prepared from fed rats and incubated as described in Example I. Test compounds were prepared in DMSO and-diluted to 250 μM in the cell suspensions. Reactions were performed in triplicate. After 4 hours of incubation, aliquots of the suspension were removed and processed as described in Example I. Quantitation of PMEApp was performed by anion exchange HPLC also as described in Example I.

- stability in phosphate buffer [1]: fully stable
- peak level of parent 6-Amino-9-neopentyl-8-(2-phosphonofuranyl)purine in liver ([2]; fasted rats, 1 hour): 5 nmoles/g tissue
- peak level of parent 6-Amino-9-neopentyl-8-(2-phosphonofuranyl)purine in plasma ([2]; fasted rats, 1 hour): 5.8 µM
- persistence of parent compound in plasma and liver ([2]; last time point measured): 4 h
- metabolism / degradation in fresh rat plasma [3]: no evidence of metabolism
Structure (SMILES): CC(C)(C)Cn1c(-c2ccc(P3(=O)OC4CC(O)CC(C4)O3)o2)nc2c(N)ncnc21 (single isomer, unassigned) [Compound 1.3, 6-Amino-8-(5′-hydroxyl-1′,3′ cyclohexyl)phosphonofuranyl-9-neopentyl purine]

Structure (SMILES): Nc1ncnc2c1nc(-c1ccc(P3(=O)OC4CC(O)CC(C4)O3)o1)n2CCc1ccccc1 (centres unmarked) [Compound 1.1, 6-Amino-8-(5′-hydroxyl-1′,3′-cyclohexyl)phosphonofuranyl-9-phenethyl purine]
- metabolism / degradation in fresh rat plasma [3]: not degraded; also recorded: no evidence of metabolism

- metabolism / degradation in fresh rat plasma [3]: not degraded
Structure (SMILES): CC(C)(C)Cn1c(-c2ccc(P3(=O)OC4CC(O)CC(C4)O3)o2)nc2c(N)ncnc21 (centres unmarked) [Compound 1.2, 6-Amino-8-(5′-hydroxyl-1′,3′-cyclohexyl)phosphonofuranyl-9-neopentyl purine]

Structure (SMILES): Cc1c(Cl)cc2c(nc(-c3ccc(P4(=O)OC5CC(O)CC(C5)O4)o3)n2CC2CC2)c1C (centres unmarked) [Compound 1.4, 6-Chloro-4,5-dimethyl-1-cyclopropylmethyl-2-[1′-hydroxy-3′,5′-cyclohexylphosphono-5-furanyl]benzimidazole]
- % inhibition @ 100 μM [4]: 36%

Structure (SMILES): CC(=O)N[C@@H]1COP(=O)(c2ccc(-c3nc4ccc(Cl)cc4n3CC(C)C)o2)O[C@H]1c1ccc([N+](=O)[O-])cc1 (stereo partly drawn) [Compound 2.4, 6-Chloro-1-isobutyl-2-{5-[1S-(4-nitrophenyl)-2R-acetylamino-propan-1,3-yl]phosphono-2-furanyl}benzimidazole]
- % inhibition @ 100 μM [4]: 40%
- % OBAV Prodrug [5]: 8.7%

Structure (SMILES): CC(C)Cn1c(-c2ccc(P3(=O)OCCC(c4ccccn4)O3)o2)nc2ccc(Cl)cc21 (centres unmarked) [Compound 4.2, 6-Chloro-1-isobutyl-2-{5-[1′-(2-pyridyl)-propan-1′,3′-yl]phosphono-2-furanyl}benzimidazole]
- % inhibition @ 100 μM [4]: 68%
- % OBAV Prodrug [5]: 8.5%

Structure (SMILES): CC(C)Cn1c(-c2ccc(P3(=O)OCCC(c4ccncc4)O3)o2)nc2ccc(Cl)cc21 (centres unmarked) [Compound 4.3, 6-Chloro-1-isobutyl-2-{5-[1′-(4-pyridyl)-propan-1′,3′-yl]phosphono-2-furanyl}benzimidazole]
- % inhibition @ 100 μM [4]: 55%
- % OBAV Prodrug [5]: 11.6%

Structure (SMILES): CC(C)Cn1c(-c2ccc(P3(=O)OCCC(c4ccc(F)cc4)O3)o2)nc2ccc(Cl)cc21 (centres unmarked) [Compound 5.2, 6-Chloro-1-isobutyl-2-{5-[1′-(4-fluorophenyl)-propan-1′,3′-yl]phosphono-2-furanyl}benzimidazole]
- % OBAV Prodrug [5]: 2.4%

Structure (SMILES): COc1ccc(C2CCOP(=O)(c3ccc(-c4nc5ccc(Cl)cc5n4CC(C)C)o3)O2)cc1Br (centres unmarked) [Compound 6.1, 6-Chloro-1-isobutyl-2-{5-[1′-(3-bromo-4-methoxyphenyl)-propan-1′,3′-yl]phosphono-2-furanyl}benzimidazole]
- % inhibition @ 100 μM [4]: 11%

Structure (SMILES): CC(=O)OCC1COP(=O)(c2ccc(-c3nc4ccc(Cl)cc4n3CC(C)C)o2)OC1 (centres unmarked) [Compound 7.2, 6-Chloro-1-isobutyl-2-{5-[2′-(acetoxymethyl)-propan-1′,3′-yl]phosphono-2-furanyl}benzimidazole]
- IC50 [4]: 90 µM
- peak intrahepatocyte levels of parent compound (isolated rat hepatocytes [6]): ~500 nmoles/g cells
- % OBAV Prodrug [5]: 12.5%

Structure (SMILES): COC(=O)OCC1COP(=O)(c2ccc(-c3nc4ccc(Cl)cc4n3CC(C)C)o2)OC1 (centres unmarked) [Compound 7.3, 6-Chloro-1-isobutyl-2-{5-[2′-(methoxycarbonytoxymethyl)-propan-1′,3′-yl]phosphono-2-furanyl}benzimidazole]
- % inhibition @ 100 μM [4]: 61%
- % OBAV Prodrug [5]: 14.1%

Structure (SMILES): CCc1cc(F)c(N)c2nc(-c3ccc(P4(=O)OCC(COC(C)=O)CO4)o3)n(CC(C)C)c12 (centres unmarked) [Compound 7.4, 4-Amino-5-fluoro-7-ethyl-1-isobutyl-2-{5-[2′-(acetoxymethyl)-propan-1′,3′-yl]phosphono-2-furanyl}benzimidazole]
- IC50 [4]: 25 µM

- PMEA in the blood or urine [7]: no detectable PMEA
Structure (SMILES): Nc1ncnc2c1ncn2CCOCP1(=O)OCCC(c2ccncc2)O1 (centres unmarked) [Compound 28.4, 9-[2-(1-(4-Pyridyl)-1,3-propylphosphonomethoxy)ethyl]adenine]
- PMEA-diphosphate levels in liver [8]: readily detectable levels; also recorded: high PMEA disphosphate levels

Structure (SMILES): CC(=O)N1CCN(c2ccc(OCC3COC(Cn4ccnc4)(c4ccc(Cl)cc4Cl)O3)cc2)CC1 (centres unmarked) [Ketoconazole]
- inhibition of the formation of ara-AMP from 30.1 [9]: dose-dependent

Structure (SMILES): Nc1ncnc2c1ncn2[C@@H]1O[C@H](CO)[C@@H](O)[C@@H]1O [araA, 9-b-D-arabinofuranosyladenine]
- oral bioavailability [10]: low oral bioavailability

Structure (SMILES): CC(C)(C)C(=O)OCOP(=O)(COCCn1cnc2c(N)ncnc21)OCOC(=O)C(C)(C)C [bisPOM-PMEA, reference compound]
- PMEApp (isolated rat hepatocytes [11]): 200 ± 33 nmol/g
- Renal excretion of PMEA, of the administered dose [7]: 54%
- Renal excretion of PMEA, of the administered dose ([7]; listed as bis POM prodrug of PMEA): high levels of PMEA in the urine
- PMEA-diphosphate levels in liver [8]: readily detectable levels

Structure (SMILES): Cc1nc2c([nH]1)c(=O)n(C)c(=O)n2Cc1ccco1 [furafylline]
- inhibition of the formation of ara-AMP from 30.1 [9]: no significant inhibition

Structure (SMILES): Nc1ccc(S(=O)(=O)Nc2ccnn2-c2ccccc2)cc1 [sulfaphenazole]
- inhibition of the formation of ara-AMP from 30.1 [9]: no significant inhibition
